What was measured:
Experiment in all cases: Test B pre-/postemergence plant response
Type in all cases: in vivo
[1] = system: Italian ryegrass (Lolium multiflorum)
How it was run: (§1)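 Ratings reflect visual comparison with untreated controls 13 to 15 days after application, from 0 (no effect) to 100 (complete control). Application was preemergence to seeded loam/sand soil or postemergence to 1- to 4-leaf plants, with compound in a non-phytotoxic, surfactant-containing solvent.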

[2] = system: goosegrass (Eleusine indica)
How it was run: as §1

kochia (Kochia scoparia) = system: kochia (Kochia scoparia)
How it was run: as §1

[3] = system: green foxtail (Setaria viridis)
How it was run: as §1

[4] = system: giant foxtail (Setaria faberii)
How it was run: as §1

soybean (Glycine max) = system: soybean (Glycine max)
How it was run: as §1

[5] = system: morningglory (Ipomoea coccinea)
How it was run: as §1

[6] = system: ragweed (common ragweed, Ambrosia elatior)
How it was run: as §1

[7] = system: johnsongrass (Sorghum halepense)
How it was run: as §1

corn (Zea mays) = system: corn (Zea mays)
How it was run: as §1

[8] = system: blackgrass (Alopecurus myosuroides)
How it was run: as §1

[9] = system: large crabgrass (Digitaria sanguinalis)
How it was run: as §1

[10] = system: cocklebur (Xanthium strumarium)
How it was run: as §1

[11] = system: velvetleaf (Abutilon theophrasti)
How it was run: as §1

[12] = 250 g ai/ha, Preemergence, 0 to 100 scale
[13] = Postemergence, 31 g ai/ha, scale 0 to 100 (0 no effect, 100 complete control)
[14] = Postemergence, 62 g ai/ha, scale 0 (no effect) to 100 (complete control), 13 to 15 days
[15] = Postemergence, 125 g ai/ha, visual rating after 13 to 15 days, scale 0 (no effect) to 100 (complete control)
[16] = Postemergence, 250 g ai/ha, scale 0 to 100
[17] = Preemergence, 31 g ai/ha, scale 0 to 100 (0 no effect, 100 complete control)
[18] = Preemergence, 62 g ai/ha, scale 0 to 100 (0 no effect, 100 complete control)
[19] = Preemergence, 125 g ai/ha, 0 to 100 scale
[20] = Preemergence, 0 is no effect, 100 is complete control, rated after 13 to 15 days, application rate of this section not shown

3-cyclohexyl-5-[(2-hydroxy-6-oxo-1-cyclohexen-1-yl)carbonyl]-2-phenyl-4(3H)-pyrimidinone [Compound 128]
90: Plant response rating, Johnsongrass [7, 15] | Plant response rating, Cocklebur [10, 13]
65: Plant response rating, Goosegrass [2, 13] | Plant response rating, Foxtail, Green [3, 12] | Foxtail, Green plant response rating [3, 19] | Soybean plant response rating (soybean (Glycine max); [19]) | Plant response rating, Ragweed [6, 17] | Plant response rating, Johnsongrass [7, 13]
40: Plant response rating, Ryegrass, Italian [1, 15] | Ryegrass, Italian plant response rating [1, 16] | Plant response rating, Blackgrass [8, 15] | Blackgrass plant response rating [8, 16]
0: Plant response rating, Ryegrass, Italian [1, 12] | Plant response rating, Ryegrass, Italian [1, 17] | Plant response rating, Ryegrass, Italian [1, 18] | Ryegrass, Italian plant response rating [1, 19] | Plant response rating, Foxtail, Green [3, 17] | Plant response rating, Foxtail, Giant [4, 17] | Plant response rating, Morningglory [5, 17] | Plant response rating, Morningglory [5, 18] | Plant response rating, Johnsongrass [7, 17] | Plant response rating, Corn (corn (Zea mays); [17]) | Plant response rating, Corn (corn (Zea mays); [18]) | Corn plant response rating (corn (Zea mays); [19]) | Plant response rating, Blackgrass [8, 17]
98: Goosegrass plant response rating [2, 16] | Kochia plant response rating (kochia (Kochia scoparia); [16]) | Foxtail, Green plant response rating [3, 16] | Plant response rating, Foxtail, Giant [4, 15] | Plant response rating, Johnsongrass [7, 12] | Johnsongrass plant response rating [7, 16]
35: Plant response rating, Foxtail, Giant [4, 18] | Morningglory plant response rating [5, 19] | Plant response rating, Corn (corn (Zea mays); [12]) | Plant response rating, Cocklebur [10, 17]
75: Plant response rating, Kochia (kochia (Kochia scoparia); [15]) | Plant response rating, Foxtail, Giant [4, 13] | Foxtail, Giant plant response rating [4, 19] | Plant response rating, Corn (corn (Zea mays); [14]) | Plant response rating, Cocklebur [10, 18]
100: Plant response rating, Goosegrass [2, 12] | Goosegrass plant response rating [2, 19] | Plant response rating, Kochia (kochia (Kochia scoparia); [12]) | Plant response rating, Kochia (kochia (Kochia scoparia); [18]) | Kochia plant response rating (kochia (Kochia scoparia); [19]) | Plant response rating, Foxtail, Giant [4, 12] | Foxtail, Giant plant response rating [4, 16] | Plant response rating, Soybean (soybean (Glycine max); [13]) | Plant response rating, Soybean (soybean (Glycine max); [14]) | Plant response rating, Soybean (soybean (Glycine max); [15]) | Soybean plant response rating (soybean (Glycine max); [16]) | Plant response rating, Morningglory [5, 12] | Plant response rating, Ragweed [6, 12] | Plant response rating, Ragweed [6, 13] | Plant response rating, Ragweed [6, 14] | Plant response rating, Ragweed [6, 15] | Ragweed plant response rating [6, 16] | Plant response rating, Ragweed [6, 18] | Ragweed plant response rating [6, 19] | Plant response rating, Crabgrass, Large [9, 12] | Plant response rating, Crabgrass, Large [9, 15] | Crabgrass, Large plant response rating [9, 16] | Plant response rating, Crabgrass, Large [9, 18] | Crabgrass, Large plant response rating [9, 19] | Plant response rating, Cocklebur [10, 12] | Plant response rating, Cocklebur [10, 14] | Plant response rating, Cocklebur [10, 15] | Cocklebur plant response rating [10, 16] | Plant response rating, Velvetleaf [11, 12] | Plant response rating, Velvetleaf [11, 15] | Velvetleaf plant response rating [11, 16] | Plant response rating, Velvetleaf [11, 17] | Plant response rating, Velvetleaf [11, 18] | Velvetleaf plant response rating [11, 19]
30: Blackgrass plant response rating [8, 19]
5: Plant response rating, Blackgrass [8, 13] | Plant response rating, Blackgrass [8, 14] | Plant response rating, Blackgrass [8, 18]
25: Plant response rating, Kochia (kochia (Kochia scoparia); [13]) | Plant response rating, Kochia (kochia (Kochia scoparia); [14]) | Plant response rating, Foxtail, Green [3, 18] | Plant response rating, Soybean (soybean (Glycine max); [17])
10: Plant response rating, Ryegrass, Italian [1, 13] | Plant response rating, Ryegrass, Italian [1, 14]
45: Plant response rating, Soybean (soybean (Glycine max); [18])
15: Plant response rating, Kochia (kochia (Kochia scoparia); [17]) | Plant response rating, Morningglory [5, 13] | Plant response rating, Morningglory [5, 14]
80: Morningglory plant response rating [5, 16] | Plant response rating, Corn (corn (Zea mays); [15]) | Plant response rating, Crabgrass, Large [9, 13] | Plant response rating, Velvetleaf [11, 13]
60: Plant response rating, Foxtail, Green [3, 13] | Plant response rating, Foxtail, Green [3, 14] | Plant response rating, Blackgrass [8, 12] | Plant response rating, Crabgrass, Large [9, 17]
70: Plant response rating, Goosegrass [2, 17] | Plant response rating, Morningglory [5, 15] | Plant response rating, Johnsongrass [7, 14] | Plant response rating, Corn (corn (Zea mays); [13])
55: Plant response rating, Johnsongrass [7, 18]
95: Plant response rating, Goosegrass [2, 15] | Plant response rating, Soybean (soybean (Glycine max); [12]) | Cocklebur plant response rating [10, 19] | Plant response rating, Velvetleaf [11, 14]
85: Plant response rating, Goosegrass [2, 14] | Plant response rating, Foxtail, Green [3, 15] | Plant response rating, Foxtail, Giant [4, 14] | Johnsongrass plant response rating [7, 19] | Corn plant response rating (corn (Zea mays); [16]) | Plant response rating, Crabgrass, Large [9, 14]

5-[(2-hydroxy-6-oxo-1-cyclohexen-1-yl)carbonyl]-2,3-diphenyl-4(3H)-pyrimidinone [Compound 2]
10: Plant response rating, Foxtail, Green [3, 14]
40: Foxtail, Green plant response rating [3, 16] | Plant response rating, Crabgrass, Large [9, 13]
45: Kochia plant response rating (kochia (Kochia scoparia); [16]) | Plant response rating, Morningglory [5, 15]
25: Plant response rating, Kochia (kochia (Kochia scoparia); [15]) | Ragweed plant response rating (0 to 100 scale) [6, 20]
60: Plant response rating, Goosegrass [2, 13] | Plant response rating, Goosegrass [2, 14] | Plant response rating, Ragweed [6, 13]
50: Foxtail, Giant plant response rating [4, 16] | Plant response rating, Soybean (soybean (Glycine max); [13]) | Plant response rating, Crabgrass, Large [9, 14]
5: Plant response rating, Foxtail, Green [3, 13] | Plant response rating, Blackgrass [8, 15] | Blackgrass plant response rating [8, 16]
75: Ragweed plant response rating [6, 16] | Plant response rating, Velvetleaf [11, 14]
90: Velvetleaf plant response rating [11, 16]
15: Plant response rating, Kochia (kochia (Kochia scoparia); [13]) | Plant response rating, Foxtail, Giant [4, 14]
70: Plant response rating, Soybean (soybean (Glycine max); [15]) | Plant response rating, Ragweed [6, 14] | Plant response rating, Ragweed [6, 15] | Plant response rating, Cocklebur [10, 15]
65: Plant response rating, Goosegrass [2, 15] | Plant response rating, Soybean (soybean (Glycine max); [14]) | Morningglory plant response rating [5, 16] | Crabgrass, Large plant response rating [9, 16] | Plant response rating, Cocklebur [10, 13] | Plant response rating, Cocklebur [10, 14]
0: Plant response rating, Ryegrass, Italian [1, 13] | Plant response rating, Ryegrass, Italian [1, 14] | Plant response rating, Ryegrass, Italian [1, 15] | Ryegrass, Italian plant response rating [1, 16] | Ryegrass, Italian plant response rating (0 to 100 scale) [1, 20] | Plant response rating, Foxtail, Giant [4, 13] | Soybean plant response rating (0 to 100 scale) (soybean (Glycine max); [20]) | Plant response rating, Morningglory [5, 13] | Plant response rating, Johnsongrass [7, 13] | Plant response rating, Johnsongrass [7, 14] | Plant response rating, Johnsongrass [7, 15] | Plant response rating, Corn (corn (Zea mays); [13]) | Plant response rating, Corn (corn (Zea mays); [14]) | Plant response rating, Corn (corn (Zea mays); [15]) | Corn plant response rating (corn (Zea mays); [16]) | Plant response rating, Blackgrass [8, 13] | Plant response rating, Blackgrass [8, 14] | Velvetleaf plant response rating (0 to 100 scale) [11, 20]
85: Cocklebur plant response rating [10, 16] | Plant response rating, Velvetleaf [11, 15]
30: Plant response rating, Foxtail, Green [3, 15]
20: Plant response rating, Kochia (kochia (Kochia scoparia); [14]) | Plant response rating, Foxtail, Giant [4, 15] | Plant response rating, Morningglory [5, 14] | Johnsongrass plant response rating [7, 16]
80: Goosegrass plant response rating [2, 16] | Soybean plant response rating (soybean (Glycine max); [16])
55: Plant response rating, Crabgrass, Large [9, 15] | Plant response rating, Velvetleaf [11, 13]

Source: patent US8952024B2, “Herbicidal pyrimidone derivatives” (E I du Pont de Nemours and Company, priority 2009, dated 2015)
